In a melting point compilation (Tetko et al.; mined from patent text by program, amines drawn as free bases though some values may be those of a salt):

SMILES | melting point [°C]
CC(C)c1ccc(N)c(C(=O)NCC2CCN(C(c3ccccc3)c3ccccc3)CC2)c1 | 114 to 116
Cc1cc(F)ccc1NC(=O)c1cccc(S(=O)(=O)N(C)c2ccc(Br)cc2)c1 | 163 to 165
Cc1ccc(-n2c(-c3ccc(CC(=O)O)cc3)ccc2-c2ccc(CC(=O)O)cc2)cc1 | 193 to 195
O=c1oc2c(c(O)c1Br)c(=O)n(Cc1ccccc1)c1ccccc21 | 226 to 229
Cc1cc(N)c([N+](=O)[O-])c(C)c1N | 124
COC(=O)c1sc2c(C(F)(F)F)cccc2c1C1CCN(C(C)=O)CC1 | 155
Cc1ccc(C(=O)Nc2nc(C(Cl)(Cl)Cl)ns2)cc1 | 127
OC(Cc1ccc(F)cc1)(Cn1cncn1)C1(Cl)CC1 (configuration not stated) | 111
CCOP(=O)(Cc1ccc(C(=O)Nc2ccc(Br)cc2C#N)cc1)OCC | 165 to 166
CC12CCC3C(CCC4CC5OC5CC43C)C1CC(N1CCCC1)C2=O (configuration not stated) | 146
COc1cc(O)c2c(c1O)C1C=CC2C1 (configuration not stated) | 151 to 153
COC(=O)C(O)Cc1ccc(O)cc1 (configuration not stated) | 42 to 43
O=S(=O)(c1ccccc1)n1ccc2c(OCCCl)cccc21 | 85 to 87
CCc1nc2c(N)nc3cc(OCc4nc5ccccc5s4)ccc3c2s1 | 211 to 212
CN(C)C=CC(=O)c1ccc(Cl)cc1 | 78.5 to 80.5
N#CCCN(N)c1cc2ccccc2[nH]1 | 120 to 122
CC(=O)c1cc(Br)c(OCCCBr)c(Br)c1 | 87 to 88
CC(C)(C)N1CC(=O)Nc2cccc(Cl)c21 | 198
O=C(c1cnccn1)N1CCN(Cc2ccc3c(c2)-c2[nH]nc(-c4ccsc4)c2C3)CC1 | 254 to 259
COC1=CC(=O)N/C1=C\C(C)C | 140 to 141
COc1nscc1[N+](=O)[O-] | 118 to 122
CC(C)Cc1ccc(C2(C)Oc3ccc(C(=O)c4c[nH]c5ccccc45)cc3O2)cc1 (single isomer, unassigned; (-)) | 155 to 158
O=C(Oc1ccc(Cl)c(OCC2CC2(Cl)Cl)c1)N1CCCC1 (configuration not stated) | 72 to 74
Oc1ccc2c(c1)COc1c-2cc2ccc(O)cc2c1-c1ccoc1 | 216 to 218

SMILES | melting point [°C]
Nc1n[nH]c(NC(=O)c2ccc3ccccc3c2)n1 | 192 to 194
CCCc1c(OCc2ccc(C=CC(=O)O)c(OC)c2)ccc(C(C)=O)c1O | 214 to 216
O=C(O)C(c1ccc2c(c1)OCO2)n1nc(-c2ccccn2)ccc1=O (configuration not stated) | 115
CCOC(=O)c1c(Cc2ccccc2)c2ccccc2[nH]c1=O | 230
CC(C)(C)c1cc(CCc2ccccc2NC(=O)N2CCN(C(=O)c3cccnc3)CC2)cc(C(C)(C)C)c1O | 171 to 172
CC1Oc2ccc(CN3CCN(CCO)CC3)cc2NC1=O (configuration not stated) | 174
COc1ccc(C(=O)C2=CCCCC2)c(Cl)c1Cl | 126 to 129
CCCCCC(CC(=O)Nc1cc(C(=O)O)ccc1C(C)(C)C)c1ccc(OC)cc1OC (configuration not stated) | 153 to 154
O=C(NC(=O)c1cccs1)c1cncc([N+](=O)[O-])c1 | 187
Cc1c(Sc2cccnc2)sc2ccc(Br)cc12 | 86 to 87
CC(C)(CO)NS(=O)(=O)c1cnc(NC(=O)c2cnn3c(C(F)(F)F)cc(-c4ccc(C(F)(F)F)cc4)nc23)s1 | 292
COC(=O)/C=C/c1ccc(/C=C/c2csc(NC(C)=O)n2)s1 | 200 to 202
CC(C)(COc1ccc2ncnn2n1)CS(N)(=O)=O | 181 to 184
CN1Cc2c(C#CC(O)(C3CC3)C3CC3)ncn2-c2cccc(Cl)c2C1=O | 179 to 181
O=S1(=O)c2cccc3cccc(c23)N1CCN1CCN(c2nsc3ccccc23)CC1 | 162
CC(C)(C)OC(=O)N1CCC(n2nc(-c3c(-c4ccccc4)nn4ccccc34)ccc2=O)CC1 | 152 to 153
C=CCSc1cc(C(=O)O)cc(S(N)(=O)=O)c1-c1ccccc1 | 78 to 81
O=c1nc2n(cc1-c1ccccc1)CCC2 | 200 to 202
CCCS(=O)(=O)c1c(S(N)(=O)=O)c(C)nn1C | 127 to 129
CC(C)(C)OCCOCCn1cc(C(=O)NCc2ccc(Cl)cc2)c(=O)c2cc(CN3CCOCC3)ccc21 | 130 to 132
O=C1N(Cc2ncccc2C(F)(F)F)c2c(F)cccc2C12COc1cc3c(cc12)OCCO3 (configuration not stated) | 241 to 243
COC(=O)C=C(Nc1cc(CCO)c([N+](=O)[O-])cc1OCc1ccccc1)C(F)(F)F | 72 to 74
C#CCN1CCC(C(C)(C)CO)CC1 | 78 to 82
CCOC(=O)c1sc(SC)c2c1CCc1nc(-c3ccccc3)[nH]c1-2 | 218 to 219

SMILES | melting point [°C]
CCCC(=O)C1=C(O)CC(c2cccc3c2OCO3)CC1=O (configuration not stated) | 81 to 82
C#CCN1C(=O)COc2ccc(C3CC(=O)C(C(CC)=NOCC)=C(O)C3)cc21 (configuration not stated) | 100 to 102
C[C@@H](NC(=O)[C@H](Cc1ccc(OC(C)(C)C)cc1)NC(=O)OC(C)(C)C)C(=O)O | 186 to 187
O=S(=O)(Nc1ccc(Oc2ccc3ncccc3c2)cc1)c1cccc(C(F)(F)F)c1 | 142 to 143
Cc1nc(NC(=O)c2ccccc2)sc1C(=O)NCC1CC1 | 163 to 166
O=C1C2=C(CCCC2)C(=O)N1c1cc(OCC2=CCCSC2)c(Cl)cc1F | 134 to 137
Cn1c(Cl)c(C=C(C#N)S(C)(=O)=O)c2ccccc21 | 180
O=C(c1cccs1)c1cnn2c(-c3cccc(NCc4ccoc4)c3)ccnc12 | 140 to 144
Cc1cc([N+](=O)[O-])cc(C(=O)Nc2nnn[nH]2)n1 | > 300
NC(=O)c1cnccc1C(F)(F)F | 163
O=C(Nc1ccc(Oc2ccnc(N3CCCC3)n2)c2ccccc12)c1cc(F)cc(N2CCCCC2)c1 | 111 to 113
O=C(c1ccccc1)c1cnc2c(cnn2Cc2ccco2)c1O | 102
COc1cc(N2CCC(N3CCN(C)CC3)CC2)ccc1-c1nc2c(N[C@H]3[C@@H](C(N)=O)[C@@H]4C=C[C@H]3C4)ccnc2[nH]1 | 185 to 195
CC1(O)CCC2(C)C(CCC3C2CCC2(C)C(c4cc(CO)on4)CCC32)C1 (configuration not stated) | 198 to 200
N#Cc1ncc(F)cc1OC1SCC(O)C(O)C1O (configuration not stated) | 94
CC(C)(C)c1cc(Cl)n2ncnc2n1 | 285 to 286
COc1ccc2[nH]c(SCc3cc(N4CCOCC4)c(F)cn3)nc2c1 | 142 to 144
Cc1ccc(SCC(=O)O)o1 | 35 to 36
CCCCOC(=O)N1CCN(C(=O)c2cc(S(=O)(=O)N(C)C)ccc2N)CC1 | 175 to 177
COc1ccc(C(=O)N2CCc3cc(O)c(OC)cc3C2=O)cc1 | 224 to 225
OC(COc1ccc2nncn2n1)CN1CCN(C(c2ccccc2)c2ccccc2)CC1 (configuration not stated) | 95 to 97
CC(=O)OC1N=C(c2ccccc2)c2cc(Cl)ccc2-n2c1cnc2C (configuration not stated) | 200 to 201
Nc1ncc(Oc2ccc(Cl)cc2)c(N[C@H]2CC[C@H](O)CC2)n1 | 154 to 155
CON(C)Cc1nc2c(N)nc(C)c(C)c2n1CC(C)C | 132 to 134
